In patent US10226451B2, “Substituted bicyclic compounds as bromodomain inhibitors” (ZENITH EPIGENETICS LTD, priority 2013, dated 2019):
pIC50: −log10 of the molar value.

How the values were obtained:
[1] = biological target: T1, Brd4 bromodomain 1 (BRD4(1)) (Homo sapiens, UniProt O60885); assay: Inhibition of tetra-acetylated histone H4 binding to Brd4 bromodomain 1 (HTRF/FRET); settings: tetra-acetylated histone H4 peptide, His-tagged bromodomain 200 nM, 2 h
T1 construct: made in house; host or cells: E. coli BL21(DE3)
In short: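 Inhibition was read as a drop in 665 nm relative to 620 nm HTRF signal after 2 h at room temperature, with IC50 from dose-response curves in duplicate wells. Reactions held 200 nM E. coli-expressed His-tagged bromodomain and 25-50 nM biotinylated tetra-acetylated histone H4 peptide. Buffer was 30 mM HEPES pH 7.4 with KF, CHAPS, BSA and 0.2% DMSO.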

[2] = test system: Human AML MV-4-11 cells; assay: Inhibition of cell proliferation in MV4-11 cells (CellTiter Aqueous One); assay type: cell-based; settings: 72 h
In short: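 MV4-11 cells at 5×10^4/well in IMDM with 10% FBS were exposed to increasing compound concentrations or 0.1% DMSO, in triplicate, for 72 h at 37 °C. A further 3-4 h with CellTiter Aqueous One reagent followed. A490, blank-corrected and expressed relative to DMSO, gave IC50.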

[3] = test system: hIL-6 mRNA in U937 cells; assay: Inhibition of hIL-6 mRNA transcription in LPS-stimulated U937 cells; assay type: cell-based; settings: Homo sapiens, U-937, PMA-differentiated U937 cells, LPS 1 ug/mL, 3 h, read-out: IL-6 activity
In short: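 U937 cells were differentiated to macrophages with 60 ng/mL PMA for 3 days, pretreated 1 h with compound in 0.1% DMSO, then stimulated with 1 ug/mL E. coli LPS for 3 h at 37° C. hIL-6 mRNA was quantified by one-step TaqMan RT-qPCR, normalized to cyclophilin, as fold expression versus control.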

[4] = test system: OCI-3 AML cells xenograft; assay: In vivo efficacy, acute myeloid leukemia xenograft model using OCI-3 AML cells; design: species or system mouse; settings: OCI-3 AML xenograft, nu/nu mice, oral dosing, tumor growth inhibition
Procedure: OCI-3 AML cells (DMSZ) were grown under standard cell culture conditions and (NCr) nu/nu fisol strain of female mice age 6-7 weeks were injected with 10×10^6 cells/animal in 100 μL PBS+100 μL Matrigel in the lower left abdominal flank. By approximately day 18-21 after OCI-3 AML cells injection, mice were randomized based on tumor volume (L×W×H)/2) of average ˜100-300 mm^3. Mice were dosed orally with compound at 30 mg/kg b.i.d on a continuous dosing schedule and at 2.5 to 45 mg/kg q.d. on a 5 day on and 2 day off dosing schedule in EA006 formulation at 10 mL/kg body weight dose volume. Tumor measurements were taken with electronic micro calipers and body weights measured on alternate days beginning from dosing period. The average tumor volumes, percent Tumor Growth Inhibition (TGI) and % change in body weights were compared relative to Vehicle control animals. The means, statistical analysis and the comparison between groups were calculated using Student's t-test in Excel.

[5] = test system: Bcl2 and c-myc gene expression in MV4-11 and MM1.s tumors; assay: Evaluation of target engagement in xenograft tumors (PD biomarkers); assay type: in vivo, mouse; settings: oral dose, tumors harvested 3, 6, 12, 24 hrs post dose
Procedure: MV4-11 and MM1.s cells (ATCC) were grown under standard cell culture conditions and (NCr) nu/nu fisol strain of female mice age 6-7 weeks were injected with 5×10^6 cells/animal in 100 μL PBS+100 μL Matrigel in the lower left abdominal flank. By approximately day 28 after MV4-11 and MM1.s cells injection, mice were randomized based on tumor volume (L×W×H)/2) of average ˜500 mm^3. Mice were dosed orally with compound in EA006 formulation at 10 mL/kg body weight dose volume and tumors harvested 3, 6, 12, 24 hrs post dose for Bcl2 and c-myc gene expression analysis as PD biomarkers.

Question: How did the pIC50 [1] turn out when Cc1noc(C)c1-c1cc(-c2c(C)nn(C)c2C)c2c(c1)[nH]c(=O)n2C [Example Compound 9, 5-(3,5-dimethylisoxazol-4-yl)-1-methyl-7-(1,3,5-trimethyl-1H-pyrazol-4-yl)-1H-benzo[d]imidazol-2(3H)-one] was run?
Answer: ≥ 6.52

Question: And the pIC50 [2]?
Answer: ≥ 6.52

Question: What about the pIC50 [3] of the same compound?
Answer: ≥ 6.52

Question: And the In vivo activity [4]?
Answer: Active

Question: And the In vivo activity [5]?
Answer: Active
